# Columns and labels:
# SK-MEL-24 = test: cells; type: functional, cell-based, Homo sapiens; conditions: Homo sapiens, SK-MEL-24
# Description: SANGER: Inhibition of human SK-MEL-24 cell growth in a cell viability assay.
# NCI-H2081 = test: cells; type: functional, cell-based, Homo sapiens; conditions: Homo sapiens, NCI-H2081;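 also: growth inhibition of human NCI-H2081 cells, read out with a cell viability assay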
# Description: SANGER: Inhibition of human NCI-H2081 cell growth in a cell viability assay.
# SCC-3 = test: cells; type: functional, cell-based, Homo sapiens; conditions: Homo sapiens, SCC-3;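 also: cell viability assay measuring inhibition of SCC-3 cell growth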
# Description: SANGER: Inhibition of human SCC-3 cell growth in a cell viability assay.
# LN-405 = test: cells; type: functional, cell-based, Homo sapiens; conditions: Homo sapiens, LN-405
# Description: SANGER: Inhibition of human LN-405 cell growth in a cell viability assay.
# MeWo = test: cells; type: functional, cell-based, Homo sapiens; conditions: Homo sapiens, MeWo;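 also: growth inhibition of MeWo cells, determined by a cell viability readout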
# Description: SANGER: Inhibition of human Mewo cell growth in a cell viability assay.
# HCT-116 = test: cells; type: functional, cell-based, Homo sapiens; conditions: Homo sapiens, HCT-116
# Description: SANGER: Inhibition of human HCT-116 cell growth in a cell viability assay.
# HPAF-II = test: cells; type: functional, cell-based, Homo sapiens; conditions: Homo sapiens, HPAF-II;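 also: growth inhibition of HPAF-II cells, read out with a cell viability assay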
# Description: SANGER: Inhibition of human HPAF-II cell growth in a cell viability assay.
# SCC-4 = test: cells; type: functional, cell-based, Homo sapiens; conditions: Homo sapiens, SCC-4;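 also: growth inhibition of human SCC-4 cells, read out as cell viability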
# Description: SANGER: Inhibition of human SCC-4 cell growth in a cell viability assay.
# Raji = test: cells; type: functional, cell-based, Homo sapiens; conditions: Homo sapiens, Raji;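 also: cell viability assay measuring inhibition of Raji cell growth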
# Description: SANGER: Inhibition of human Raji cell growth in a cell viability assay.
# GMS-10 = test: cells; type: functional, cell-based, Homo sapiens; conditions: Homo sapiens, GMS-10;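 also: growth inhibition of GMS-10 cells, read out as cell viability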
# Description: SANGER: Inhibition of human GMS-10 cell growth in a cell viability assay.
# SN12C = test: cells; type: functional, cell-based, Homo sapiens; conditions: Homo sapiens, SN12C;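 also: growth inhibition of human SN12C cells, measured by a cell viability assay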
# Description: SANGER: Inhibition of human SN12C cell growth in a cell viability assay.
# Ca9-22 = test: cells; type: functional, cell-based, Homo sapiens; conditions: Homo sapiens, Ca9-22;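 also: growth inhibition of Ca9-22 cells, read out with a cell viability assay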
# Description: SANGER: Inhibition of human Ca9-22 cell growth in a cell viability assay.
# 786-0 = test: cells; type: functional, cell-based, Homo sapiens; conditions: Homo sapiens
# Description: SANGER: Inhibition of human 786-0 cell growth in a cell viability assay.
# OVCAR-8 = test: cells; type: functional, cell-based, Homo sapiens; conditions: Homo sapiens, OVCAR-8;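 also: growth inhibition of human OVCAR-8 cells, read out by a cell viability assay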
# Description: SANGER: Inhibition of human OVCAR-8 cell growth in a cell viability assay.
# SW1088 = test: cells; type: functional, cell-based, Homo sapiens; conditions: Homo sapiens, SW1088;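 also: growth inhibition of human SW1088 cells, read out by a cell viability assay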
# Description: SANGER: Inhibition of human SW1088 cell growth in a cell viability assay.
# MKN-45 = test: cells; type: functional, cell-based, Homo sapiens; conditions: Homo sapiens, MKN-45;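 also: growth inhibition of human MKN-45 cells, measured with a cell viability assay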
# Description: SANGER: Inhibition of human MKN45 cell growth in a cell viability assay.
# SBC-5 = test: cells; type: functional, cell-based, Homo sapiens; conditions: Homo sapiens, SBC-5;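 also: cell viability assay read-out, IC50 is the concentration that inhibits growth of the cells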
# Description: SANGER: Inhibition of human SBC-5 cell growth in a cell viability assay.
# NCI-H2087 = test: cells; type: functional, cell-based, Homo sapiens; conditions: Homo sapiens, NCI-H2087;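 also: growth inhibition determined with a cell viability readout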
# Description: SANGER: Inhibition of human NCI-H2087 cell growth in a cell viability assay.
# TE-15 = test: cells; type: functional, cell-based, Homo sapiens; conditions: Homo sapiens, TE-15;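 also: cell viability readout of growth inhibition in TE-15 cells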
# Description: SANGER: Inhibition of human TE-15 cell growth in a cell viability assay.
# HOP-92 = test: cells; type: functional, cell-based, Homo sapiens; conditions: Homo sapiens, HOP-92;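 also: cell viability readout, with IC50 reflecting inhibition of HOP-92 cell growth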
# Description: SANGER: Inhibition of human HOP-92 cell growth in a cell viability assay.
# 8505C = test: cells; type: functional, cell-based, Homo sapiens; conditions: Homo sapiens, 8505C
# Description: SANGER: Inhibition of human 8505C cell growth in a cell viability assay.
# COLO-792 = test: cells; type: functional, cell-based, Homo sapiens; conditions: Homo sapiens, COLO-792
# Description: SANGER: Inhibition of human COLO-792 cell growth in a cell viability assay.
# NCI-H1437 = test: cells; type: functional, cell-based, Homo sapiens; conditions: Homo sapiens, NCI-H1437;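 also: growth inhibition of human NCI-H1437 cells, read out by a cell viability assay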
# Description: SANGER: Inhibition of human NCI-H1437 cell growth in a cell viability assay.
# BPH-1 = test: cells; type: functional, cell-based, Homo sapiens; conditions: Homo sapiens, BPH-1;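 also: cell viability assay measuring growth inhibition of human BPH-1 cells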
# Description: SANGER: Inhibition of human BPH-1 cell growth in a cell viability assay.
# YKG-1 = test: cells; type: functional, cell-based, Homo sapiens; conditions: Homo sapiens, YKG-1
# Description: SANGER: Inhibition of human YKG-1 cell growth in a cell viability assay.
# RPMI 8402 = test: SANGER: Inhibition of human RPMI-8402 cell growth in a cell viability assay.; type: functional, cell-based; conditions: Homo sapiens, RPMI 8402; read-out: IC50
# NCI-H292 = test: cells; type: functional, cell-based, Homo sapiens; conditions: Homo sapiens, NCI-H292;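 also: growth inhibition of NCI-H292 cells, read out with a cell viability assay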
# Description: SANGER: Inhibition of human NCI-H292 cell growth in a cell viability assay.
# CAL-33 = test: cells; type: functional, cell-based, Homo sapiens; conditions: Homo sapiens, CAL-33;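 also: growth inhibition of CAL-33 cells, read out with a cell viability assay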
# Description: SANGER: Inhibition of human CAL-33 cell growth in a cell viability assay.
# NCI-H1703 = test: cells; type: functional, cell-based, Homo sapiens; conditions: Homo sapiens, NCI-H1703;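 also: growth inhibition of NCI-H1703 cells, read out via a cell viability assay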
# Description: SANGER: Inhibition of human NCI-H1703 cell growth in a cell viability assay.
# BHY = test: cells; type: functional, cell-based, Homo sapiens; conditions: Homo sapiens, BHY
# Description: SANGER: Inhibition of human BHY cell growth in a cell viability assay.
# REH = test: cells; type: functional, cell-based, Homo sapiens; conditions: Homo sapiens, REH;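 also: growth inhibition of REH cells determined with a cell viability read-out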
# Description: SANGER: Inhibition of human REH cell growth in a cell viability assay.
# COR-L105 = test: cells; type: functional, cell-based, Homo sapiens; conditions: Homo sapiens, COR-L105
# Description: SANGER: Inhibition of human COR-L105 cell growth in a cell viability assay.
# ESS-1 = test: cells; type: functional, cell-based, Homo sapiens; conditions: Homo sapiens, ESS-1;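 also: growth inhibition of human ESS-1 cells, read out by a cell viability assay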
# Description: SANGER: Inhibition of human ESS-1 cell growth in a cell viability assay.
# PF-382 = test: cells; type: functional, cell-based, Homo sapiens; conditions: Homo sapiens, PF-382
# Description: SANGER: Inhibition of human PF-382 cell growth in a cell viability assay.
# SNU-387 = test: cells; type: functional, cell-based, Homo sapiens; conditions: Homo sapiens, SNU-387
# Description: SANGER: Inhibition of human SNU-387 cell growth in a cell viability assay.
# EB2 = test: cells; type: functional, cell-based, Homo sapiens; conditions: Homo sapiens, EB2;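 also: growth inhibition of EB2 cells, read out with a cell viability assay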
# Description: SANGER: Inhibition of human EB2 cell growth in a cell viability assay.
# UMC-11 = test: cells; type: functional, cell-based, Homo sapiens; conditions: Homo sapiens, UMC-11;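 also: growth inhibition of UMC-11 cells, read out with a cell viability assay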
# Description: SANGER: Inhibition of human UMC-11 cell growth in a cell viability assay.
# KARPAS-422 = test: cells; type: functional, cell-based, Homo sapiens; conditions: Homo sapiens, KARPAS-422
# Description: SANGER: Inhibition of human KARPAS-422 cell growth in a cell viability assay.
# ECC4 = test: cells; type: functional, cell-based, Homo sapiens; conditions: Homo sapiens, ECC4;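 also: growth inhibition of ECC4 cells, read out with a cell viability assay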
# Description: SANGER: Inhibition of human ECC4 cell growth in a cell viability assay.
# GAMG = test: cells; type: functional, cell-based, Homo sapiens; conditions: Homo sapiens, GAMG;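 also: cell growth inhibition measured by a viability assay in the GAMG human cell line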
# Description: SANGER: Inhibition of human GAMG cell growth in a cell viability assay.
# HCC70 = test: cells; type: functional, cell-based, Homo sapiens; conditions: Homo sapiens, HCC70;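 also: cell viability assay measuring how strongly the compound suppresses proliferation of HCC70 cells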
# Description: SANGER: Inhibition of human HCC70 cell growth in a cell viability assay.
# NCI-H2196 = test: cells; type: functional, cell-based, Homo sapiens; conditions: Homo sapiens, NCI-H2196;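 also: cell viability assay used as the readout of growth inhibition in NCI-H2196 cells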
# Description: SANGER: Inhibition of human NCI-H2196 cell growth in a cell viability assay.
# BXPC-3 = test: cells; type: functional, cell-based, Homo sapiens; conditions: Homo sapiens, BXPC-3;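 also: growth inhibition of human BxPC-3 cells, read out by a cell viability assay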
# Description: SANGER: Inhibition of human BxPC-3 cell growth in a cell viability assay.
# MDA-MB-175-VII = test: cells; type: functional, cell-based, Homo sapiens; conditions: Homo sapiens, MDA-MB-175-VII
# HuP-T4 = test: cells; type: functional, cell-based, Homo sapiens; conditions: Homo sapiens, HuP-T4;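 also: cell viability assay measuring how much HuP-T4 cell growth is inhibited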
# Description: SANGER: Inhibition of human HuP-T4 cell growth in a cell viability assay.
structure (smiles),measurement,setting,value
C=C(c1ccc(C(=O)O)cc1)c1cc2c(cc1C)C(C)(C)CCC2(C)C [BEXAROTENE],IC50,SK-MEL-24,> 8 µM
same,IC50,NCI-H2081,> 8 µM
same,IC50,SCC-3,> 8 µM
same,IC50,LN-405,> 8 µM
same,IC50,MeWo,> 8 µM
same,IC50,HCT-116,> 8 µM
same,IC50,HPAF-II,> 8 µM
same,IC50,SCC-4,> 8 µM
same,IC50,Raji,> 8 µM
same,IC50,GMS-10,> 8 µM
same,IC50,SN12C,> 8 µM
same,IC50,Ca9-22,> 8 µM
same,IC50,786-0,> 8 µM
same,IC50,OVCAR-8,> 8 µM
same,IC50,SW1088,> 8 µM
same,IC50,MKN-45,> 8 µM
same,IC50,SBC-5,> 8 µM
same,IC50,NCI-H2087,> 8 µM
same,IC50,TE-15,> 8 µM
same,IC50,HOP-92,> 8 µM
same,IC50,8505C,> 8 µM
same,IC50,COLO-792,> 8 µM
same,IC50,NCI-H1437,> 8 µM
same,IC50,BPH-1,> 8 µM
same,IC50,YKG-1,> 8 µM
same,IC50,RPMI 8402,> 8 µM
same,IC50,NCI-H292,> 8 µM
same,IC50,CAL-33,> 8 µM
same,IC50,NCI-H1703,> 8 µM
same,IC50,BHY,> 8 µM
same,IC50,REH,> 8 µM
same,IC50,COR-L105,> 8 µM
same,IC50,ESS-1,> 8 µM
same,IC50,PF-382,> 8 µM
same,IC50,SNU-387,> 8 µM
same,IC50,EB2,> 8 µM
same,IC50,UMC-11,> 8 µM
same,IC50,KARPAS-422,> 8 µM
same,IC50,ECC4,> 8 µM
same,IC50,GAMG,> 8 µM
same,IC50,HCC70,> 8 µM
same,IC50,NCI-H2196,> 8 µM
same,IC50,BXPC-3,> 8 µM
same,IC50,MDA-MB-175-VII,> 8 µM
same,IC50,HuP-T4,> 8 µM
CCC/C=C/C=C/C(=O)O[C@H]1/C(=C/C(=O)OC)C[C@H]2C[C@H]([C@@H](C)O)OC(=O)C[C@H](O)C[C@@H]3C[C@H](OC(C)=O)C(C)(C)[C@](O)(C[C@@H]4C/C(=C/C(=O)OC)C[C@H](/C=C/C(C)(C)[C@]1(O)O2)O4)O3 [BRYOSTATIN 1],IC50,SK-MEL-24,> 0.008 µM
same,IC50,NCI-H2081,> 0.008 µM
same,IC50,SCC-3,> 0.008 µM
same,IC50,LN-405,> 0.008 µM
same,IC50,MeWo,> 0.008 µM
same,IC50,HCT-116,> 0.008 µM
same,IC50,HPAF-II,> 0.008 µM
same,IC50,SCC-4,> 0.008 µM
same,IC50,Raji,> 0.008 µM
same,IC50,GMS-10,> 0.008 µM
same,IC50,SN12C,> 0.008 µM
same,IC50,Ca9-22,> 0.008 µM
same,IC50,786-0,> 0.008 µM
same,IC50,OVCAR-8,> 0.008 µM
same,IC50,SW1088,> 0.008 µM
same,IC50,MKN-45,> 0.008 µM
same,IC50,SBC-5,> 0.008 µM
same,IC50,NCI-H2087,> 0.008 µM
same,IC50,TE-15,> 0.008 µM
same,IC50,HOP-92,> 0.008 µM
same,IC50,8505C,> 0.008 µM
same,IC50,COLO-792,> 0.008 µM
same,IC50,NCI-H1437,> 0.008 µM
same,IC50,BPH-1,0.00603 µM
same,IC50,YKG-1,0.00413 µM
same,IC50,RPMI 8402,> 0.008 µM
same,IC50,NCI-H292,> 0.008 µM
same,IC50,CAL-33,> 0.008 µM
same,IC50,NCI-H1703,> 0.008 µM
same,IC50,BHY,> 0.008 µM
same,IC50,REH,> 0.008 µM
same,IC50,COR-L105,> 0.008 µM
same,IC50,ESS-1,> 0.008 µM
same,IC50,PF-382,> 0.008 µM
same,IC50,SNU-387,> 0.008 µM
same,IC50,EB2,> 0.008 µM
same,IC50,UMC-11,> 0.008 µM
same,IC50,KARPAS-422,> 0.008 µM
same,IC50,ECC4,> 0.008 µM
same,IC50,GAMG,> 0.008 µM
same,IC50,HCC70,> 0.008 µM
same,IC50,NCI-H2196,> 0.008 µM
same,IC50,BXPC-3,> 0.008 µM
same,IC50,MDA-MB-175-VII,> 0.008 µM
same,IC50,HuP-T4,> 0.008 µM
COc1cccc2c1C(=O)c1c(O)c3c(c(O)c1C2=O)C[C@@](O)(C(=O)CO)C[C@@H]3O[C@H]1C[C@H](N)[C@H](O)[C@H](C)O1 [DOXORUBICIN],IC50,SK-MEL-24,0.914 µM
same,IC50,NCI-H2081,0.234 µM
same,IC50,SCC-3,0.0673 µM
same,IC50,LN-405,> 1.02 µM
same,IC50,MeWo,> 1.02 µM
same,IC50,HPAF-II,0.527 µM
same,IC50,SCC-4,0.184 µM
same,IC50,Raji,0.335 µM
same,IC50,GMS-10,> 1.02 µM
same,IC50,SN12C,0.395 µM
same,IC50,Ca9-22,0.0501 µM
same,IC50,786-0,0.00847 µM
same,IC50,OVCAR-8,0.0619 µM
same,IC50,SW1088,> 1.02 µM
same,IC50,MKN-45,0.0815 µM
same,IC50,SBC-5,0.0207 µM
same,IC50,NCI-H2087,0.0494 µM
same,IC50,TE-15,0.0241 µM
same,IC50,HOP-92,0.291 µM
same,IC50,8505C,0.0196 µM
same,IC50,COLO-792,> 1.02 µM
same,IC50,NCI-H1437,0.0646 µM
same,IC50,BPH-1,0.0221 µM
same,IC50,YKG-1,0.0188 µM
same,IC50,RPMI 8402,0.0539 µM
same,IC50,NCI-H292,0.0438 µM
same,IC50,CAL-33,0.0679 µM
same,IC50,NCI-H1703,0.126 µM
same,IC50,BHY,0.0289 µM
same,IC50,REH,0.00811 µM
same,IC50,COR-L105,0.189 µM
same,IC50,ESS-1,0.0111 µM
same,IC50,PF-382,0.0672 µM
same,IC50,SNU-387,0.236 µM
same,IC50,EB2,0.0337 µM
same,IC50,UMC-11,0.331 µM
same,IC50,KARPAS-422,0.193 µM
same,IC50,ECC4,> 1.02 µM
same,IC50,GAMG,0.06 µM
same,IC50,HCC70,> 1.02 µM
same,IC50,NCI-H2196,0.229 µM
same,IC50,BXPC-3,0.211 µM
same,IC50,MDA-MB-175-VII,0.972 µM
same,IC50,HuP-T4,0.0522 µM

# Source: ChEMBL document CHEMBL1201861, “Genomics of Drug Sensitity in Cancer screening data, Wellcome Trust Sanger Institute”
